From publication PMC5684613 (BioMed Research International, 2017)
Values after ≈ are worked out from the molar mass of the structure shown. Where two headings read alike, the source gives them in different places.

Legend:
[1] = In vitro dissolution study, USP II paddle, acetate buffer pH 4.5; assay type: physicochemical; details: acetate buffer pH 4.5, after 90 min, n = 3
Procedure: Dissolution studies were performed using a USP II Paddle dissolution apparatus (Distek, USA). The prepared SDs were filled in 00 size capsules and placed in Japanese sinkers. The sinkers were then placed in dissolution vessels containing 900 ml of acetate buffer pH 4.5, at 75 rpm and temperature 37 ± 0.5°C. Samples (5 ml) were collected periodically at 15, 30, 45, 60, and 90 min, filtered through a 0.45 μm PVDF filter and replaced with a fresh dissolution medium (5 ml). The concentrations were analyzed at 264 nm by UV spectrophotometer.

[2] = Dissolution studies in FaSSIF and FeSSIF media; assay type: physicochemical; details: n = 3
Procedure: These two biorelevant media, FaSSIF and FeSSIF, were developed to simulate the condition of the intestine in the fasted and fed states.
Blank FaSSIF was prepared by dissolving 6.186 g NaCl, 4.47 g NaH2PO4, and 0.348 g NaOH in 900 ml of distilled water and the pH was adjusted to 6.5 by using 1 N NaOH or HCl using pH meter. The volume was made up to 1000 ml using distilled water.
Blank FaSSIF medium (500 ml) was taken and 2.240 g SIF powder was added to it and this solution was magnetically stirred until the powder completely dissolved to obtain a clear micellar solution. The volume was made up to 1000 ml using the buffer. The solution was allowed to stand for 2 h; it becomes slightly opalescent and thereafter used. A volume of 500 ml is recommended for dissolution for simulating fasted state condition
Blank FeSSIF was prepared by dissolving 8.65 g glacial acetic acid, 11.874 g NaCl, and 4.04 g NaOH in 900 ml of distilled water and the pH was adjusted to 5.0 by using 1 N NaOH or HCl using pH meter. The volume was made up to 1000 ml using distilled water.
Blank FeSSIF medium (500 ml) was taken and 11.20 g SIF powder was added to it and this solution was magnetically stirred until the powder completely dissolved to obtain a clear micellar solution. The volume was made up to 1000 ml using the buffer and thereafter used. For simulating fed state condition 1 L dissolution fluid is recommended.

[3] = In vitro permeation study by everted gut sac method; assay type: in vitro ADME, albino Wistar rats; details: male, albino Wistar, rat, pH 7.4; mucosal to serosal, n = 3; read-out: Apparent permeability coefficient mean ± SD
Procedure: (§1) The tissue was continuously aerated (oxygenated) with the aid of an electrical aerator. Intestinal segments of 4 cm were cut and ligated with nylon thread at one end and carefully everted on the glass rod. The everted gut sacs were filled with 500 μl of Tyrode solution and ligated at the other end and then placed inside the test tube containing 15 mL of the test solution continuously bubbled with atmospheric air at 15–20 bubbles per min separately. Test tubes were maintained at temperature 37 ± 0.5°C on water bath. The test solution outside the sac was termed as mucosal fluid, and the solution inside the sac was termed as serosal fluid.

[4] = tested on: everted gut sac; assay: as above; assay type: in vitro ADME, albino Wistar rats; details: after 2 h, serosal fluid, 1 mg/ml DRV outside
Procedure: as §1

[5] = cited from earlier work
[6] = Oral pharmacokinetic study, fasted and fed state; details: for K el / AUC(0-t) / AUC / Cmax: oral; for K el / AUC(0-t) / AUC: 70 mg/kg DRV; for AUC(0-t): AUC0-t; for AUC: AUC0-α; for Cmax: C max, 70 mg/kg DRV (8 mg/kg Ritonavir)
[7] = Phase solubility study of DRV in aqueous carrier solutions
[8] = parameters: method as in Kim et al. [32]; details: simultaneous administration of curcumin, rats; ref Kim et al. [32]; cited from earlier work
[9] = parameters: method as in Varma and Panchagnula [30]; details: ref Varma and Panchagnula [30], cited from earlier work
[10] = male, albino Wistar, rat, in vivo, po, 70 mg/kg, Group A (fasted)
[11] = male, albino Wistar, rat, in vivo, po, 70 mg/kg, Group B (fed)

CC(C)CN(C[C@@H](O)[C@H](Cc1ccccc1)NC(=O)O[C@H]1CO[C@H]2OCC[C@H]21)S(=O)(=O)c1ccc(N)cc1 [DRV, Darunavir]
Cumulative % drug release (±SD) [1]: 30.9% | Cumulative % drug release (±SD) in FaSSIF ([2]; after 30 min): 13.8 ± 0.239% | Cumulative % drug release (±SD) in FaSSIF ([2]; after 60 min): 25.7 ± 0.512% | Cumulative % drug release (±SD) in FaSSIF ([2]; after 90 min): 31.2 ± 0.425% | Papp at 120 min, 1 mg/ml [3]: 0.828 ± 0.12 ×10⁻⁶ cm/s | concentration of the drug inside the sac [4]: 451480 ± 4020 ng/mL | solubility in water [5]: 150 µg/mL (≈ 274 µM) | K el ([6]; Group A (fasted)): 0.211 ± 0.002 | K el ([6]; Group B (fed)): 0.228 ± 0.003 | Tmax ([6]; male, albino Wistar, rat, in vivo, po, 70 mg/kg): 1 h | AUC(0-t) [6, 10]: 116 ng·h/mL | AUC(0-t) [6, 11]: 258 ng·h/mL | AUC [6, 10]: 117 ng·h/mL | AUC [6, 11]: 259 ng·h/mL | Cmax [6, 10]: 2860 ± 366 ng/mL | Cmax [6, 11]: 5870 ± 565 ng/mL | solubility at 72 h [7]: 150 µg/mL (≈ 274 µM)

CC(C)(C)NC(=O)[C@@H]1C[C@@H]2CCCC[C@@H]2CN1C[C@@H](O)[C@H](Cc1ccccc1)NC(=O)[C@H](CC(N)=O)NC(=O)c1ccc2ccccc2n1 [Saquinavir]
increase of oral exposure [8]: 2.7 fold

CC(=O)O[C@H]1C(=O)[C@@]2(C)[C@H]([C@H](OC(=O)c3ccccc3)[C@]3(O)C[C@H](OC(=O)[C@H](O)[C@@H](NC(=O)c4ccccc4)c4ccccc4)C(C)=C1C3(C)C)[C@]1(OC(C)=O)CO[C@@H]1C[C@@H]2O [paclitaxel]
Intrinsic permeability ([9]; in the presence of 1 mg/ml TPGS): 22 ×10⁻⁶ cm/s | Intrinsic permeability ([9]; without TPGS): 8 ×10⁻⁶ cm/s
